The results in this text go back to patent US8268827B2, “Pyridazinone derivatives as PARP inhibitors” (Istituto di Ricerche di Biologia Molecolare P. Angeletti …, priority 2007, dated 2012).

The subject of the assay is BRCA-1 silenced HeLa cells (HeLa shBRCA1-GFP). Description: Proliferation assay in BRCA-1 silenced HeLa cells. The following applies: Homo sapiens; BRCA1 silenced HeLa cells, 168 hours; read-out: CC50 in the BRCA1 silenced HeLa cells. It is filed as cell-based. Here is the method: Proliferation Assay in BRCA-1 Silenced HeLa Cells
Compounds of the present invention were also tested in an anti-proliferative assay in matched pair BRCA1 wt and BRCA1-(shRNA) HeLa cells.
The assay is based on the ability of living cells to convert a redox dye (resazurin) into a fluorescent end product (resofurin). The amount of resofurin produced is directly proportional to the cell number.
HeLa shBRCA1-GFP—These are HeLa cells transduced at an MOI of 100 with a Lentivirus containing a shRNA against BRCA-1 and an expression cassette for GFP. BRCA-1 silencing is more than 80% as assessed by Taqman analysis and the cells stably express GFP.
HeLa THM-GFP—These are HeLa cells transduced at an MOI of 100 with a control vector not expressing any shRNA.
• Seed 300 cell/well in 96 wells viewplate black in 90 ul culture Medium*: • Incubate 4 hours at 37° C., 5% CO2 • Add 10 ul/well of 10× compound (5% DMSO in H2O) • Incubate for 168 hours at 37° C., 5% CO2 • Add 10 ul of Celltiter Blue solution (Promega, G8081) pre-diluted 1:1 in PBS1× • Incubate the mixture for 45′ at 37° C., 5% CO2 • Incubate 15′ at RT in the dark • Read plate at fluorimeter ex: 550 nm; em: 590 nm *Culture Medium: DMEM (GIBCO, 41966-029), 10% FCS (GIBCO, 10106-169), 0.1 mg/ml Penicillin-Streptomycin (GIBCO, 15140-114), 2 mM L-Glutamine (GIBCO, 3042190)

Each structure is given as a SMILES string. Structures can show the parent of a compound that is named as a salt.

In general, CC50 refers to the concentration giving 50% cytotoxicity. In the case of `Cc1c(Cc2ccc(F)c(C(=O)N3CCN(C4CCCCC4)C(=O)C3)c2)n[nH]c(=O)c1C(F)(F)F` [Example 25, 3-{3-[(4-Cyclohexyl-3-oxopiperazin-1-yl)carbonyl]-4-fluorobenzyl}-4-methyl-6-oxo-5-(trifluoromethyl)-1,6-dihydropyridazin-1-ium trifluoroacetate], the CC50 was less than 50 nM.
The figure for `Cc1c(Cc2ccc(F)c(C(=O)N3CCN(c4ccc(F)c(F)c4)C(=O)C3)c2)n[nH]c(=O)c1C(F)(F)F` [Example 26, 3-(3-{[4-(3,4-Difluorophenyl)-3-oxopiperazin-1-yl]carbonyl}-4-fluorobenzyl)-4-methyl-6-oxo-5-(trifluoromethyl)-1,6-dihydropyridazin-1-ium trifluoroacetate] is less than 50 nM; for `O=C(c1cc(Cc2cc(C(F)(F)F)c(=O)[nH]n2)ccc1F)N1CCN(C2CCCCC2)C(=O)C1` [Example 27, 6-{3-[(4-Cyclohexyl-3-oxopiperazin-1-yl)carbonyl]-4-fluorobenzyl}-3-oxo-4-(trifluoromethyl)-2,3-dihydropyridazin-1-ium trifluoroacetate] it is 50 to 500 nM; for `CCc1c(Cc2ccc(F)c(C(=O)N3CCN(C4CCCCC4)C(=O)C3)c2)n[nH]c(=O)c1C` [Example 28, 3-{3-[(4-Cyclohexyl-3-oxopiperazin-1-yl)carbonyl]-4-fluorobenzyl}-4-ethyl-5-methyl-6-oxo-1,6-dihydropyridazin-1-ium trifluoroacetate] it is 50 to 500 nM.
With `CCc1c(C)c(Cc2ccc(F)c(C(=O)N3CCN(C4CCCCC4)C(=O)C3)c2)n[nH]c1=O` [Example 29, 3-{3-[(4-Cyclohexyl-3-oxopiperazin-1-yl)carbonyl]-4-fluorobenzyl}-5-ethyl-4-methyl-6-oxo-1,6-dihydropyridazin-1-ium trifluoroacetate] the figure was less than 50 nM; with `CCc1cc(Cc2ccc(F)c(C(=O)N3CCN(C4CCCC4)C(=O)C3)c2)n[nH]c1=O` [Example 30, 3-{3-[(4-Cyclopentyl-3-oxopiperazin-1-yl)carbonyl]-4-fluorobenzyl}-5-ethyl-6-oxo-1,6-dihydropyridazin-1-ium trifluoroacetate], less than 50 nM; with `Cc1c(Cc2ccc(F)c(C(=O)N3CCN(c4cc(Cl)cc(Cl)c4)C(=O)C3)c2)n[nH]c(=O)c1C` [Example 42, 3-(3-{[4-(3,5-Dichlorophenyl)-3-oxopiperazin-1-yl]carbonyl}-4-fluorobenzyl)-4,5-dimethyl-6-oxo-1,6-dihydropyridazin-1-ium trifluoroacetate], less than 50 nM.
Take `Cc1c(Cc2ccc(F)c(C(=O)N3CCN(c4cccc5ccccc45)C(=O)C3)c2)n[nH]c(=O)c1C` [Example 43, 3-(4-Fluoro-3-{[4-(1-naphthyl)-3-oxopiperazin-1-yl]carbonyl}benzyl)-4,5-dimethyl-6-oxo-1,6-dihydropyridazin-1-ium trifluoroacetate]: the CC50 was less than 50 nM.
With `Cc1c(Cc2ccc(F)c(C(=O)N3CCN(c4cccs4)C(=O)C3)c2)n[nH]c(=O)c1C` [Example 44, 3-(4-Fluoro-3-{[3-oxo-4-(2-thienyl)piperazin-1-yl]carbonyl}benzyl)-4,5-dimethyl-6-oxo-1,6-dihydropyridazin-1-ium trifluoroacetate] the figure was less than 50 nM; with `Cc1c(Cc2ccc(F)c(C(=O)N3CCN(CC(C)C(F)(F)F)C(=O)C3)c2)n[nH]c(=O)c1C` (stereo not drawn) [Example 45, 6-(4-Fluoro-3-{[3-oxo-4-(3,3,3-trifluoro-2-methylpropyl)piperazin-1-yl]carbonyl}benzyl)-4,5-dimethyl-3-oxo-2,3-dihydropyridazin-1-ium trifluoroacetate], less than 5000 nM.
The figure for `Cc1c(Cc2ccc(F)c(C(=O)N3CCN(C(c4ccccc4)C(F)F)C(=O)C3)c2)n[nH]c(=O)c1C` (stereo not drawn) [Example 46, 6-(3-{[4-(2,2-Difluoro-1-phenylethyl)-3-oxopiperazin-1-yl]carbonyl}-4-fluorobenzyl)-4,5-dimethyl-3-oxo-2,3-dihydropyridazin-1-ium trifluoroacetate] is less than 50 nM; for `Cc1c(Cc2ccc(F)c(C(=O)N3CCN(C4CCCOC4)C(=O)C3)c2)n[nH]c(=O)c1C` (stereo not drawn) [Example 47, 6-(4-Fluoro-3-{[3-oxo-4-(tetrahydro-2H-pyran-3-yl)piperazin-1-yl]carbonyl}benzyl)-4,5-dimethyl-3-oxo-2,3-dihydropyridazin-1-ium trifluoroacetate] it is 50 to 500 nM.
The figure for `Cc1c(Cc2ccc(F)c(C(=O)N3CCN(c4csc5ccccc45)C(=O)C3)c2)n[nH]c(=O)c1C` [Example 62, 3-(3-{[4-(1-Benzothien-3-yl)-3-oxopiperazin-1-yl]carbonyl}-4-fluorobenzyl)-4,5-dimethyl-6-oxo-1,6-dihydropyridazin-1-ium trifluoroacetate] is 50 to 500 nM.
As to `Cc1c(Cc2ccc(F)c(C(=O)N3CCN(c4cncs4)C(=O)C3)c2)n[nH]c(=O)c1C` [Example 63, 3-(4-Fluoro-3-{[3-oxo-4-(1,3-thiazol-5-yl)piperazin-1-yl]carbonyl}benzyl)-4,5-dimethyl-6-oxo-1,6-dihydropyridazin-1-ium trifluoroacetate], the CC50 is less than 50 nM.
On to `Cc1c(Cc2ccc(F)c(C(=O)N3CCN(c4cncnc4)C(=O)C3)c2)n[nH]c(=O)c1C` [Example 64, 3-{4-Fluoro-3-[(3-oxo-4-pyrimidin-5-ylpiperazin-1-yl)carbonyl]benzyl}-4,5-dimethyl-6-oxo-1,6-dihydropyridazin-1-ium trifluoroacetate], for which the CC50 is less than 5000 nM.
The figure for `Cc1c(Cc2ccc(F)c(C(=O)N3CCN(c4cncc(C(F)(F)F)c4)C(=O)C3)c2)n[nH]c(=O)c1C` [Example 65, 3-[4-Fluoro-3-({3-oxo-4-[5-(trifluoromethyl)pyridin-3-yl]piperazin-1-yl}carbonyl)benzyl]-4,5-dimethyl-6-oxo-1,6-dihydropyridazin-1-ium trifluoroacetate] is 50 to 500 nM.
The figure for `Cc1c(Cc2ccc(F)c(C(=O)N3CCN(C4CCCC(c5ccccc5)C4)C(=O)C3)c2)n[nH]c(=O)c1C` (stereo not drawn) [Example 66, 6-(4-Fluoro-3-{[3-oxo-4-(3-phenylcyclohexyl)piperazin-1-yl]carbonyl}benzyl)-4,5-dimethyl-3-oxo-2,3-dihydropyridazin-1-ium trifluoroacetate] is 50 to 500 nM; for `Cc1c(Cc2ccc(F)c(C(=O)N3CCN(C4CCC(c5ccccc5)CC4)C(=O)C3)c2)n[nH]c(=O)c1C` (stereo not drawn) [Example 68, 6-(4-Fluoro-3-{[3-oxo-4-(4-phenylcyclohexyl)piperazin-1-yl]carbonyl}benzyl)-4,5-dimethyl-3-oxo-2,3-dihydropyridazin-1-ium trifluoroacetate] it is less than 50 nM.
With `Cc1c(Cc2ccc(F)c(C(=O)N3CCN(C4CCOC4)C(=O)C3)c2)n[nH]c(=O)c1C` (stereo not drawn) [Example 69, 6-(4-Fluoro-3-{[3-oxo-4-(tetrahydrofuran-3-yl)piperazin-1-yl]carbonyl}benzyl)-4,5-dimethyl-3-oxo-2,3-dihydropyridazin-1-ium trifluoroacetate] the figure was 50 to 500 nM; with `Cc1c(Cc2ccc(F)c(C(=O)N3CCN(C4CCc5ccccc5C4)C(=O)C3)c2)n[nH]c(=O)c1C` (stereo not drawn) [Example 70, 6-(4-Fluoro-3-{[3-oxo-4-(1,2,3,4-tetrahydronaphthalen-2-yl)piperazin-1-yl]carbonyl}benzyl)-4,5-dimethyl-3-oxo-2,3-dihydropyridazin-1-ium trifluoroacetate], less than 50 nM.
As to `Cc1c(Cc2ccc(F)c(C(=O)N3CCN(C4Cc5ccccc5C4)C(=O)C3)c2)n[nH]c(=O)c1C` [Example 71, 6-(3-{[4-(2,3-Dihydro-1H-inden-2-yl)-3-oxopiperazin-1-yl]carbonyl}-4-fluorobenzyl)-4,5-dimethyl-3-oxo-2,3-dihydropyridazin-1-ium trifluoroacetate], the CC50 lay in the range of 50 to 500 nM.
Consider `Cc1c(Cc2cc(C(=O)N3CCN(C4CCCC4)C(=O)C3)c(F)cc2Br)n[nH]c(=O)c1C` [Example 83, 6-{2-Bromo-5-[(4-cyclopentyl-3-oxopiperazin-1-yl)carbonyl]-4-fluorobenzyl}-4,5-dimethylpyridazin-3(2H)-one], for which the CC50 is less than 50 nM.
With `Cc1c(Cc2ccc(F)c(C(=O)N3CC(=O)N4CCCC[C@H]4C3)c2)n[nH]c(=O)c1C` [Example 89, (9aS)-2-{5-[(4,5-Dimethyl-6-oxo-1,6-dihydropyridazin-3-yl)methyl]-2-fluorobenzoyl}octahydro-4H-pyrido[1,2-a]pyrazin-4-one trifluoroacetate] the figure was less than 5000 nM; with `Cc1c(Cc2ccc(F)c(C(=O)N3CCN(C4COc5ccccc5C4)C(=O)C3)c2)n[nH]c(=O)c1C` (stereo not drawn) [Example 98, 6-(3-{[4-(3,4-dihydro-2H-chromen-3-yl)-3-oxopiperazin-1-yl]carbonyl}-4-fluorobenzyl)-4,5-dimethyl-3-oxo-2,3-dihydropyridazin-1-ium trifluoroacetate], less than 50 nM.
